The values below come from US6890520B2, “Thermally stable ferulic acid derivatives” (Wakayama Prefecture, priority 2003, dated 2005).

Data set [1] is described as follows: Thermal decomposition temperature by thermogravimetric-differential thermal analyzer TG/DTA 6200. In kind it is physicochemical. Here is the method:
A thermal decomposition temperature of bis-4,4′-(2-ethoxycarbonyl-1-ethenyl)-2,2′-methoxyphenoxymethane prepared in Example 1 was determined by using a thermogravimetric-differential thermal simultaneous analyzer “TG/DTA 6200” (commercially available from Seiko Instruments Inc.).
A thermal decomposition temperature of bis-4,4′-(2-2-ethyl-1-hexyloxycarbonyl-1-ethenyl)-2,2′-methoxyphenoxymethane prepared in Example 9 was determined by using a thermogravimetric-differential thermal simultaneous analyzer “TG/DTA 6200” (commercially available from Seiko Instruments Inc.).
A thermal decomposition temperature of bis-4,4′-(2-dodecyloxycarbonyl-1-ethenyl)-2,2′-methoxyphenoxymethane prepared in Example 10 was determined by using a thermogravimetric-differential thermal simultaneous analyzer “TG/DTA 6200” (commercially available from Seiko Instruments Inc.).

The conditions of data set [2]: related art statement; cited from earlier work.

Turning to `CCOC(=O)C=Cc1ccc(OCOc2ccc(C=CC(=O)OCC)cc2OC)c(OC)c1` [Example 1, Bis-4,4′-(2-ethoxycarbonyl-1-ethenyl)-2,2′-methoxyphenoxymethane], in data set [1], the thermal decomposition point was determined as 359 °C. In turn, `CCCCC(CC)COC(=O)C=Cc1ccc(OCOc2ccc(C=CC(=O)OCC(CC)CCCC)cc2OC)c(OC)c1` (stereo not shown) [Example 9, Bis-4,4′-(2-2-ethyl-1-hexyloxycarbonyl-1-ethenyl)-2,2′-methoxyphenoxymethane] displayed a thermal decomposition point in data set [1] of 355 °C.

As to `CCCCCCCCCCCCOC(=O)C=Cc1ccc(OCOc2ccc(C=CC(=O)OCCCCCCCCCCCC)cc2OC)c(OC)c1` [Example 10, Bis-4,4′-(2-dodecyloxycarbonyl-1-ethenyl)-2,2′-methoxyphenoxymethane], the thermal decomposition point in data set [1] came to 318 °C. For `COc1cc(/C=C/C(=O)O)ccc1O` [ferulic acid], the decomposition temperature in data set [2] was 176 °C.
